Measurements as given in ChEMBL document CHEMBL1133806, “Synthesis and biological evaluation of novel bisindolylmaleimides that inhibit vascular endothelial cell proliferation” (Bioorg Med Chem Lett, 2001).
pIC50: −log10 of the molar value.

What was measured:
Type in all cases: functional, cell-based
DLD-1 = assay: Antiproliferative activity against human colon cancer cell line (DLD-1 cells) using MTT assay
[1] = Antiproliferative activity against burkit lymphoma cell line (ST-486 cells) using MTT assay; conditions: Homo sapiens
HUVEC = assay: Antiproliferative activity against human umbilical vein endothelial cells (HUVECs) using MTT assay
LoVo = assay: Antiproliferative activity against human colon cancer cell line (LoVo cells) using MTT assay

SMILES | pIC50 (DLD-1) | pIC50 (LoVo) | pIC50 [1] | pIC50 (HUVEC)
CN[C@@H]1C[C@H]2O[C@@](C)([C@@H]1OC)n1c3ccccc3c3c4c(c5c6ccccc6n2c5c31)C(=O)NC4 [STAUROSPORINE] | 8.05 | – | 8.15 | 8.40
CN(C)CCOCCn1cc(C2=C(c3c[nH]c4ccccc34)C(=O)N(CCN(C)C)C2=O)c2ccccc21 | < 4.00 | < 4.00 | 4.52 | 4.60
CN(C)CCN1C(=O)C(c2c[nH]c3ccccc23)=C(c2c[nH]c3ccccc23)C1=O | < 4.00 | < 4.00 | < 4.00 | 4.52
Cc1ccc(C(=O)Nc2ccc(S(=O)(=O)O)c3cc(S(=O)(=O)O)cc(S(=O)(=O)O)c23)cc1NC(=O)c1cccc(NC(=O)Nc2cccc(C(=O)Nc3cc(C(=O)Nc4ccc(S(=O)(=O)O)c5cc(S(=O)(=O)O)cc(S(=O)(=O)O)c45)ccc3C)c2)c1 [SURAMIN] | – | – | – | 3.30
O=C1NC(=O)C(c2cn(CCOCCO)c3ccccc23)=C1c1c[nH]c2ccccc12 | 5.22 | 4.70 | 5.70 | 5.70

Now from value to compound, other results behind:

pIC50 (DLD-1) | pIC50 (LoVo) | SMILES | pIC50 [1] | pIC50 (HUVEC)
< 4.00 | < 4.00 | CN(C)CCOCCn1cc(C2=C(c3c[nH]c4ccccc34)C(=O)NC2=O)c2ccccc21 | 5.00 | 4.70
4.40 | 5.15 | CN(C)CCN1C(=O)C(c2c[nH]c3ccccc23)=C(c2cn(CCOCCO)c3ccccc23)C1=O | 5.00 | 5.15
< 4.00 | < 4.00 | CNCCOCCn1cc(C2=C(c3c[nH]c4ccccc34)C(=O)N(CCN(C)C)C2=O)c2ccccc21 | 4.70 | 4.30
